Measurements from PubChem BioAssay (NCI).
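Cultured in 96-well plates, cells were exposed to test compound for 48 hours across five concentrations. TGI is the concentration that stops growth completely.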

Legend:
Assay in all cases: DTP human tumour cell line panel, 48 h
SR leukemia = system: SR leukemia
OVCAR-4 ovarian = system: OVCAR-4 ovarian
U251 CNS = system: U251 CNS
SF-539 CNS = system: SF-539 CNS
HS 578T breast = system: HS 578T breast
K-562 leukemia = system: K-562 leukemia
CAKI-1 renal = system: CAKI-1 renal
SK-MEL-28 melanoma = system: SK-MEL-28 melanoma
SNB-75 CNS = system: SNB-75 CNS
SK-MEL-2 melanoma = system: SK-MEL-2 melanoma
MDA-MB-231 breast = system: MDA-MB-231 breast
PC-3 prostate = system: PC-3 prostate
HOP-62 NSCLC = system: HOP-62 NSCLC
DU-145 prostate = system: DU-145 prostate
HCT-116 colon = system: HCT-116 colon
NCI-H226 lung = system: NCI-H226 lung
SK-MEL-5 melanoma = system: SK-MEL-5 melanoma
SF-268 CNS = system: SF-268 CNS
OVCAR-3 ovarian = system: OVCAR-3 ovarian
OVCAR-8 ovarian = system: OVCAR-8 ovarian
SF-295 CNS = system: SF-295 CNS
UACC-257 melanoma = system: UACC-257 melanoma
SW-620 colon = system: SW-620 colon
UACC-62 melanoma = system: UACC-62 melanoma
ACHN renal = system: ACHN renal
NCI-H23 lung = system: NCI-H23 lung
NCI/ADR-RES ovarian = system: NCI/ADR-RES ovarian
NCI-H460 lung = system: NCI-H460 lung
RXF 393 renal = system: RXF 393 renal
HT29 colon = system: HT29 colon
SNB-19 CNS = system: SNB-19 CNS
KM12 colon = system: KM12 colon
SN12C renal = system: SN12C renal
IGROV1 ovarian = system: IGROV1 ovarian
HL-60(TB) leukemia = system: HL-60(TB) leukemia
M14 melanoma = system: M14 melanoma
SK-OV-3 ovarian = system: SK-OV-3 ovarian
T-47D breast = system: T-47D breast
MDA-MB-435 = system: MDA-MB-435
A549 NSCLC = system: A549 NSCLC
TK-10 renal = system: TK-10 renal
UO-31 renal = system: UO-31 renal
786-0 renal = system: 786-0 renal
MDA-N = system: MDA-N
HOP-92 NSCLC = system: HOP-92 NSCLC
RPMI-8226 leukemia = system: RPMI-8226 leukemia
EKVX NSCLC = system: EKVX NSCLC
LOX IMVI melanoma = system: LOX IMVI melanoma
MOLT-4 leukemia = system: MOLT-4 leukemia
CCRF-CEM leukemia = system: CCRF-CEM leukemia
HCT-15 colon = system: HCT-15 colon
MALME-3M melanoma = system: MALME-3M melanoma
OVCAR-5 ovarian = system: OVCAR-5 ovarian
MCF7 breast = system: MCF7 breast
COLO 205 colon = system: COLO 205 colon
BT-549 breast = system: BT-549 breast
HCC-2998 colon = system: HCC-2998 colon
A498 renal = system: A498 renal

`CN(C)CCNc1ccc([N+](=O)[O-])c2nc3ccccc3c(N)c12` showed a TGI (SR leukemia) of 1.73 µM, a TGI (OVCAR-4 ovarian) of 3.58 µM and a TGI (U251 CNS) greater than 10 µM. It also gave a TGI (SF-539 CNS) of 4.48 µM, a TGI (HS 578T breast) of 8.2 µM and a TGI (K-562 leukemia) of 5.35 µM. It also gave a TGI (CAKI-1 renal) greater than 10 µM, a TGI (SK-MEL-28 melanoma) greater than 10 µM and a TGI (SNB-75 CNS) of 3.96 µM. It also gave a TGI (SK-MEL-2 melanoma) of 3.53 µM, a TGI (MDA-MB-231 breast) of 6.89 µM and a TGI (PC-3 prostate) of 2.87 µM. It also gave a TGI (HOP-62 NSCLC) greater than 10 µM, a TGI (DU-145 prostate) greater than 10 µM and a TGI (HCT-116 colon) of 1.91 µM. For the same molecule, the TGI (NCI-H226 lung) was greater than 10 µM, the TGI (SK-MEL-5 melanoma) was 2.79 µM and the TGI (SF-268 CNS) was 3.94 µM. It also gave a TGI (OVCAR-3 ovarian) of 3.32 µM, a TGI (OVCAR-8 ovarian) greater than 10 µM and a TGI (SF-295 CNS) of 8.1 µM. It also gave a TGI (UACC-257 melanoma) greater than 10 µM, a TGI (SW-620 colon) of 3.74 µM and a TGI (UACC-62 melanoma) of 3.54 µM. It also gave a TGI (ACHN renal) of 3.51 µM, a TGI (NCI-H23 lung) of 6.55 µM and a TGI (NCI/ADR-RES ovarian) of 2.45 µM. The TGI (NCI-H460 lung) was 1.66 µM, the TGI (RXF 393 renal) was 4.32 µM and the TGI (HT29 colon) was 3.07 µM. It also gave a TGI (SNB-19 CNS) greater than 10 µM, a TGI (KM12 colon) of 1.75 µM and a TGI (SN12C renal) greater than 10 µM. For the same molecule, the TGI (IGROV1 ovarian) was 2.78 µM, the TGI (HL-60(TB) leukemia) was 6.86 µM and the TGI (M14 melanoma) was 1.94 µM. The TGI (SK-OV-3 ovarian) was 1.33 µM, the TGI (T-47D breast) was 3.7 µM and the TGI (MDA-MB-435) was 2.61 µM. It also gave a TGI (A549 NSCLC) of 4.23 µM, a TGI (TK-10 renal) greater than 10 µM and a TGI (UO-31 renal) of 4.27 µM. It also gave a TGI (786-0 renal) greater than 10 µM, a TGI (MDA-N) of 2.09 µM and a TGI (HOP-92 NSCLC) of 7.71 µM. It also gave a TGI (RPMI-8226 leukemia) of 1.51 µM, a TGI (EKVX NSCLC) of 5.4 µM and a TGI (LOX IMVI melanoma) of 2.11 µM. The TGI (MOLT-4 leukemia) was 4.74 µM, the TGI (CCRF-CEM leukemia) was greater than 10 µM and the TGI (HCT-15 colon) was 4.01 µM. The TGI (MALME-3M melanoma) was 3.12 µM, the TGI (OVCAR-5 ovarian) was greater than 10 µM and the TGI (MCF7 breast) was greater than 10 µM. The TGI (COLO 205 colon) was 1.84 µM.

In the case of `COc1cccc2cc(C(N)=O)c(=N)oc12`, the TGI (SR leukemia) is reported as greater than 100 µM, the TGI (OVCAR-4 ovarian) is reported as greater than 100 µM and the TGI (U251 CNS) is reported as greater than 100 µM. For the same molecule, the TGI (SF-539 CNS) was greater than 100 µM, the TGI (HS 578T breast) was 97.5 µM and the TGI (K-562 leukemia) was greater than 100 µM. For the same molecule, the TGI (CAKI-1 renal) was greater than 100 µM, the TGI (SK-MEL-28 melanoma) was greater than 100 µM and the TGI (SNB-75 CNS) was greater than 100 µM. For the same molecule, the TGI (SK-MEL-2 melanoma) was 60.7 µM, the TGI (MDA-MB-231 breast) was greater than 100 µM and the TGI (PC-3 prostate) was greater than 100 µM. It also gave a TGI (DU-145 prostate) greater than 100 µM, a TGI (BT-549 breast) greater than 100 µM and a TGI (HCT-116 colon) greater than 100 µM. For the same molecule, the TGI (NCI-H226 lung) was greater than 100 µM, the TGI (SK-MEL-5 melanoma) was greater than 100 µM and the TGI (SF-268 CNS) was greater than 100 µM. For the same molecule, the TGI (OVCAR-3 ovarian) was greater than 100 µM, the TGI (OVCAR-8 ovarian) was greater than 100 µM and the TGI (UACC-257 melanoma) was greater than 100 µM. The TGI (HCC-2998 colon) was greater than 100 µM, the TGI (SW-620 colon) was greater than 100 µM and the TGI (UACC-62 melanoma) was greater than 100 µM. The TGI (ACHN renal) was greater than 100 µM, the TGI (NCI-H23 lung) was greater than 100 µM and the TGI (NCI/ADR-RES ovarian) was greater than 100 µM. It also gave a TGI (NCI-H460 lung) greater than 100 µM, a TGI (RXF 393 renal) greater than 100 µM and a TGI (HT29 colon) greater than 100 µM. The TGI (SNB-19 CNS) was greater than 100 µM, the TGI (KM12 colon) was greater than 100 µM and the TGI (SN12C renal) was greater than 100 µM. For the same molecule, the TGI (IGROV1 ovarian) was greater than 100 µM, the TGI (HL-60(TB) leukemia) was greater than 100 µM and the TGI (M14 melanoma) was greater than 100 µM. For the same molecule, the TGI (SK-OV-3 ovarian) was greater than 100 µM, the TGI (T-47D breast) was greater than 100 µM and the TGI (MDA-MB-435) was greater than 100 µM. For the same molecule, the TGI (A549 NSCLC) was greater than 100 µM, the TGI (A498 renal) was greater than 100 µM and the TGI (786-0 renal) was greater than 100 µM. It also gave a TGI (MDA-N) greater than 100 µM, a TGI (HOP-92 NSCLC) greater than 100 µM and a TGI (RPMI-8226 leukemia) greater than 100 µM. It also gave a TGI (EKVX NSCLC) greater than 100 µM, a TGI (LOX IMVI melanoma) greater than 100 µM and a TGI (MOLT-4 leukemia) greater than 100 µM. The TGI (CCRF-CEM leukemia) was greater than 100 µM, the TGI (HCT-15 colon) was greater than 100 µM and the TGI (MALME-3M melanoma) was 45.9 µM. It also gave a TGI (OVCAR-5 ovarian) greater than 100 µM and a TGI (COLO 205 colon) greater than 100 µM.
